From PubChem BioAssay AID2060627 (Molecular Pharmacology Branch, DTP, NCI, 2025)
Several values for one entry are separate records, joined by “and”; a condition that tells them apart may be missing. Identical values can stand only once.

System: 156681-154-R-J1-PDC complex spheroid viability
Assay: Anticancer human tumor 156681-154-R-J1-PDC patient-derived melanoma cell line growth inhibition [CLK]
Conditions: for viability, T/C: stronger effect = lower value
Excerpt: A high-throughput screen of multi-cell type tumor spheroids was designed to identify active combinations of […] and targeted small molecules. Complex spheroids include a stromal component modeled by human endothelial cells (HUVEC) and fibroblasts modeled by human mesenchymal stem cells (MSCs). The concentration ranges selected for each drug and investigational agent were based upon clinically achievable concentrations if the clinical Cmax of the agent was known.
Compounds. The drugs and investigational agents: cirtuvivint (SM08502; NSC835563), CC-671 (NSC850746), vemurafenib (NSC761431), tapotoclax (NSC804041), sotorasib (NSC818433), adagrasib (NSC831453), MRTX-1133 (NSC836407), BAY2416964 (NSC825713), copanlisib (NSC816437), inavolisib (NSC800729), abemaciclib (NSC768073), osimertinib (NSC779217), entinostat (NSC756642), eltanexor (KPT-8602, NSC794443), venetoclax (NSC766270), ceralasertib (NSC777638), bortezomib (NSC756655), olaparib (NSC753686), talazoparib (NSC767125), alisertib (NSC759677), peposertib (NSC802822), gemcitabine (NSC613327), 5-fluorouracil (NSC19893), SN-38 (NSC673596), oxaliplatin (NSC266046), paclitaxel (NSC125973), and doxorubicin (NSC123127), were obtained from the National Cancer Institute (NCI) Developmental Therapeutics Program Chemical Repository. The FDA-approved anticancer drug set is available from the Developmental Therapeutics Program at https://dtp.cancer.gov/organization/dscb/obtaining/available plates.htm. […] The stock solutions were prepared in dimethyl sulfoxide (DMSO, Sigma-Aldrich, St. Louis, MO, cat. D2650), except for the platinum complexes which were prepared in saline (Quality Biological, Gaithersburg, MD, cat. 114-055-101), at 800-fold the tested concentration and stored at -70 degrees C prior to their use. All drugs and investigational agents were tested over a range starting from a high concentration at or near the clinical Cmax and decreasing in half-log increments. If the clinical Cmax for an agent had not been determined, the highest concentration tested was 10 microM.
Cell Culture. All cells were maintained in an incubator at 37 degrees C and 5% CO2 with 95% humidity. The PDC lines were cultured according to standard operating procedures established by the NCI PDMR. Briefly, all PDCs were thawed and cultured in Matrigel-coated flasks prepared with a working solution of 1X Ham's F-12 nutrient mix, without supplementation (Invitrogen, Waltham, MA, cat. 11765054), 100 U/mL penicillin-streptomycin (Invitrogen, cat. 15140122), and 2.5% Matrigel (Corning Inc., Corning, NY, cat. 354248) for the first three passages. The 947758-054-R-J2-PDC line was cultured in 6B/Colon 1A media, which includes advanced DMEM/F-12 (Thermo Fisher Scientific, cat. 12634028), 10 mM HEPES (Thermo Fisher Scientific, cat. 15630080), 1X GlutaMAX supplement (Thermo Fisher Scientific, cat. 35050061), 0.1 mg/mL primocin (InvivoGen, cat. ant-pm-2), 10% defined fetal bovine serum, heat inactivated (HyClone Laboratories Inc., cat. SH30070.03HI), 1.25 mM N-Acetyl-L-cysteine (Sigma-Aldrich, cat. A9165), 10 mM nicotinamide (Sigma-Aldrich, cat. N0636), 1X B-27 supplement (Thermo Fisher Scientific, cat. 17504044), 1X N-2 supplement (Thermo Fisher Scientific, cat. 17502048), and 10 microM Y-27632 dihydrochloride (Tocris Bioscience, cat. 1254). The 876862-298-R-J1-PDC was cultured in 6E media, which includes all 6B/Colon 1A media components plus 50% L-WRN conditioned media (ATCC, cat. CRL-3276), 50 ng/mL recombinant human EGF recombinant protein (hEGF; Thermo Fisher Scientific, cat. PHG0311), 10 ng/mL recombinant human fibroblast growth factor 10 (hGFG-10; PeproTech, cat. 100-26), 1 ng/mL recombinant human fibroblast growth factor 2 (hFGF-2; PeproTech, cat. 100-18B), and 1 µM prostaglandin E2 (PGE2; Tocris, cat. 2296). The 227483-062-R1-J1-PDC line was cultured in Panc media, containing all 6E components except hFGF-2, with the addition of 500 nM SB-431542 (Selleckchem, cat. S1067) and 10 nM gastrin (Tocris, cat. 3006). […]
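Also: spheroids exposed to the agents for seven days.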
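For viability, T/C in this document: 100% = DMSO vehicle control viability.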

## CC(=O)O[C@H]1C(=O)[C@@]2(C)[C@H]([C@H](OC(=O)c3ccccc3)[C@]3(O)C[C@H](OC(=O)[C@H](O)[C@@H](NC(=O)c4ccccc4)c4ccccc4)C(C)=C1C3(C)C)[C@]1(OC(C)=O)CO[C@@H]1C[C@@H]2O
Compound 0.0316 µM
  viability, T/C: 19.9% and 16%
Compound 0.1 µM
  viability, T/C: 13.5% and 12.5%
Compound 0.316 µM
  viability, T/C: 14.8% and 14.5%
Compound 1 µM
  viability, T/C: 23.2% and 18.2%
Compound 3.16 µM
  viability, T/C: 26.6% and 27.1%
Compound 10 µM
  viability, T/C: 26.6% and 32.9%
Curve of compound
  IC50: < 31.6 nM

## COc1ccc([C@@H](O)c2cc(-c3ncnc4cc(N5CCOCC5)ccc34)c(F)cc2Cl)nn1
Compound 0.0316 µM
  viability, T/C: 109% and 79.3%
Compound 0.1 µM
  viability, T/C: 80.7% and 73.7%
Compound 0.316 µM
  viability, T/C: 90.2% and 74.1%
Compound 1 µM
  viability, T/C: 74.8% and 48.6%
Compound 3.16 µM
  viability, T/C: 49.6% and 41.3%
Compound 10 µM
  viability, T/C: 24.8% and 27.6%
Curve of compound
  IC50: 3380 nM and 1260 nM

## COc1cccc2c1C(=O)c1c(O)c3c(c(O)c1C2=O)CC(O)(C(=O)CO)CC3OC1CC(N)C(O)C(C)O1 (stereo not drawn)
Compound 0.0316 µM
  viability, T/C: 37% and 29.8%
Compound 0.1 µM
  viability, T/C: 25.2% and 19.9%
Compound 0.316 µM
  viability, T/C: 9.16% and 2.97%
Compound 1 µM
  viability, T/C: 0.48% and 0.17%
Compound 3.16 µM
  viability, T/C: 1.37% and 0.12%
Compound 10 µM
  viability, T/C: 2.47% and 0.67%
Curve of compound
  IC50: < 31.6 nM

## C=CC(=O)N1CCN(c2nc(=O)n(-c3c(C)ccnc3C(C)C)c3nc(-c4c(O)cccc4F)c(F)cc23)C(C)C1 (stereo not drawn) + CN1CCN(c2cc(C(=O)Nc3cc4cc(-c5cnn(C)c5)ccc4cn3)ccn2)CC1
Curve of first compound, second compound 0.0316 µM
  IC50: > 10000 nM
Curve of first compound, second compound 0.1 µM
  IC50: > 10000 nM
Curve of first compound, second compound 0.316 µM
  IC50: < 31.6 nM
Curve of first compound, second compound 1 µM
  IC50: < 31.6 nM
Curve of first compound, second compound 3.16 µM
  IC50: < 31.6 nM
Curve of first compound, second compound 10 µM
  IC50: < 31.6 nM
Second compound 0.0316 µM, first compound 0.0316 µM
  viability, T/C: 97.3%
Second compound 0.0316 µM, first compound 0.1 µM
  viability, T/C: 88%
Second compound 0.0316 µM, first compound 0.316 µM
  viability, T/C: 112%
Second compound 0.0316 µM, first compound 1 µM
  viability, T/C: 129%
Second compound 0.0316 µM, first compound 3.16 µM
  viability, T/C: 118%
Second compound 0.0316 µM, first compound 10 µM
  viability, T/C: 97.9%
Second compound 0.1 µM, first compound 0.0316 µM
  viability, T/C: 95.6%
Second compound 0.1 µM, first compound 0.1 µM
  viability, T/C: 78.6%
Second compound 0.1 µM, first compound 0.316 µM
  viability, T/C: 101%
Second compound 0.1 µM, first compound 1 µM
  viability, T/C: 99.9%
Second compound 0.1 µM, first compound 3.16 µM
  viability, T/C: 119%
Second compound 0.1 µM, first compound 10 µM
  viability, T/C: 100%
Second compound 0.316 µM, first compound 0.0316 µM
  viability, T/C: 28.5%
Second compound 0.316 µM, first compound 0.1 µM
  viability, T/C: 27.9%
Second compound 0.316 µM, first compound 0.316 µM
  viability, T/C: 23.8%
Second compound 0.316 µM, first compound 1 µM
  viability, T/C: 30%
Second compound 0.316 µM, first compound 3.16 µM
  viability, T/C: 29.6%
Second compound 0.316 µM, first compound 10 µM
  viability, T/C: 10.9%
Second compound 1 µM, first compound 0.0316 µM
  viability, T/C: 0.18%
Second compound 1 µM, first compound 0.1 µM
  viability, T/C: 3.34%
Second compound 1 µM, first compound 0.316 µM
  viability, T/C: 0.25%
Second compound 1 µM, first compound 1 µM
  viability, T/C: 0.17%
Second compound 1 µM, first compound 3.16 µM
  viability, T/C: 2%
Second compound 1 µM, first compound 10 µM
  viability, T/C: 0.82%
Second compound 3.16 µM, first compound 0.0316 µM
  viability, T/C: 0.77%
Second compound 3.16 µM, first compound 0.1 µM
  viability, T/C: 0.21%
Second compound 3.16 µM, first compound 0.316 µM
  viability, T/C: 0.12%
Second compound 3.16 µM, first compound 1 µM
  viability, T/C: 0.11%
Second compound 3.16 µM, first compound 3.16 µM
  viability, T/C: 2.22%
Second compound 3.16 µM, first compound 10 µM
  viability, T/C: 3.15%
Second compound 10 µM, first compound 0.0316 µM
  viability, T/C: 0.12%
Second compound 10 µM, first compound 0.1 µM
  viability, T/C: 0.14%
Second compound 10 µM, first compound 0.316 µM
  viability, T/C: 0.25%
Second compound 10 µM, first compound 1 µM
  viability, T/C: 0.17%
Second compound 10 µM, first compound 3.16 µM
  viability, T/C: 1.47%
Second compound 10 µM, first compound 10 µM
  viability, T/C: 0.3%
